# Legend:
# S. epidermidis biofilms = test: Sterilization of S. epidermidis biofilms by diluted 50 ppm ClO2 or formol saline; format: cell-based, Staphylococcus epidermidis; conditions: for minimal time of exposure to effect sterilization: 22° C.
# Method: Antibiotic activity against S. epidermidis biofilms are determined using a supravital dye which acts as an electron acceptor in coupled oxidative systems in biofilm bacteria. The method allows the bacteria to be examined undisturbed within the biofilm matrix in situ. Briefly stated, the biofilms are exposed to antibiotic solutions and incubated at […] for varying periods of time. Positive (viable, 1% peptone water) and negative (sterilized, 4% formol-peptone) controls are included in all experiments. After a designated exposure at 22° C. for varying periods of time between 15 seconds to 6 hours, the biofilms are rinsed twice in sterile water and allowed to drain. They are then placed in a flat agar medium incorporating substantive dyes and incubated at 37° C. for 4 hours, then 24 hours. Viability is assessed visually by a change in dye color and confirmed after 24 hours by mechanically scraping and subsequently culturing the biofilms. Sterilization is indicated by the absence of color changes and confirmed by culture of both intact and mechanically fragmented biofilms. Inhibition of growth is indicated by a lack of color change after a 4-hour incubation and confirmed by a positive color change by 24 hours.
# This conclusion is underscored in studies that assess the efficacy of methods employed using compositions of the invention in combination with an infusate used in C A P D and C C P D practice, Inpersol® Abbott Laboratories, Montreal, Canada, which contains 4.25% dextrose and has a pH of 5.2. A 50 ppm ClO2 solution is diluted from 1:2 to 1:10 with normal saline (denoted below as NS), Inpersol® peritoneal dialyzate (denoted as PD), and peptone-saline (a standardized protein digest obtained from Oxoid, denoted as PS). Four percent formol saline, a known potent environmental disinfectant of considerable toxicity, is used as a reference. The results are expressed as the minimal time of exposure at 22° C. to effect sterilization of S. epidermidis biofilms: […]
# [1] = Free radical signal by luminometer (modified luminol assay); conditions: One hundred-fold dilutions, within one minute after mixing
# Method: ClO2 (75 ppm) is generated by mixing 0.25% chlorite and 1.4% lactic acid. One hundred-fold dilutions are tested within one minute after mixing using electron paramagnetic spectroscopy (ESR) and a LKB luminometer.
# The luminometer assay utilizes a modified luminol assay for radical detection. Luminol (LH2) reacts with free radicals (R·) as follows: […]
# LOO^- →L2 + AP* (aminophthalate dianion, active state)
# The pH optimum for the reaction is 10 to 12. The assay is standardized with an enzymatic system in which the generation of free radicals could be quantified by measuring generation of ·O2^-, obtained with the following reaction, […]
# hypoxanthine+xanthine oxidase→urate+·O2^- by the reduction of ferricytochrome C.
# Staphylococcus species = test: Cidal activity of 50 ppm ClO2; format: cell-based; conditions: within one minute
# Excerpt: (§1) This invention provides a quick-acting, broad-spectrum antimicrobial, that is not absorbed systemically because it is rapidly eliminated or degraded. The inventive compositions have the requisite, extended range of antimicrobial action, rapidity of kill and degradability for this application. […] ClO2 reacts with oxidizable bonds of these organisms and other organic matter and, as a result, is reduced to lower oxidation states: initially chlorite and ultimately chloride. The latter is present at high levels in the body (ca. 0.5% of cellular fluids), so that the small amount formed by ClO2 degradation (in the parts per million range) would disappear into that pool. Compatability of these disinfecting peritoneal flush solutions is also appropriate, since the ClO2 is generated or dissolved in solutions which have osmotic pressures that are suitably isotonic with cellular fluids.
# Pseudomonas aeruginosa = test: Cidal activity of 50 ppm ClO2; format: cell-based; conditions: within one minute
# Excerpt: as §1
# Bacteroides species = test: Cidal activity of 50 ppm ClO2; format: cell-based; conditions: within one minute
# Excerpt: as §1
# Klebsiella pneumoniae = test: Cidal activity of 50 ppm ClO2; format: cell-based; conditions: within one minute
# Excerpt: as §1
# Streptococcus species = test: Cidal activity of 50 ppm ClO2; format: cell-based; conditions: within one minute
# Excerpt: as §1
# [2] = tested on: Escherichia coli and other coliforms; test: Cidal activity of 50 ppm ClO2; format: cell-based; conditions: within one minute
# Excerpt: as §1
# [3] = tested on: free radicals generated by xanthine oxidase (XO) on xanthine; test: Scavenging of free radicals generated by xanthine oxidase on xanthine (ferricytochrome C reduction); format: biochemical
# Excerpt: Since recent studies indicate that the superoxide radical is the active form of oxygen in the prolyl and lysyl hydrolyase reactions during collagen synthesis, this example assesses the effects that compositions of the invention have on free radicals.
# Free radicals are generated in vitro by the action of xanthine oxidase (XO) on xanthine. The generation of free radicals is monitored by the reduction of ferricytochrome C by the system. The action of chlorine dioxide is compared with the scavenging action of the well known free radical scavengers superoxide dismutase (SOD) and catalase.
# The experiments are divided into three groups. In the first group, 50 μmoles of xanthine, 0.0217 units/mg XO, 0.1 mM EDTA are mixed in a total volume of 1.0 ml Hank's Balanced Salt Solution (HBSS). This generated 64 ±8 nmoles oxygen. In the second group, 0.3125 units/mg SOD and 1,300 units catalase are added to the reagents employed in group 1; this yields 19.4 nmoles oxygen. […] In the third group, chlorine dioxide is substituted for the SOD and catalase in the same system; a chlorine dioxide concentration of about 7.5 ppm inhibits free radical formation by 74% and at a concentration of 15 ppm, by 100%.
compound,measurement,setting,value
"[O][Cl+][O-] [ClO2, chlorine dioxide]",minimal time of exposure to effect sterilization,S. epidermidis biofilms; dilution 1/2 in normal saline (NS),0.25 min
same,minimal time of exposure to effect sterilization,S. epidermidis biofilms; dilution 1/2 in peptone-saline (PS),1 min
same,minimal time of exposure to effect sterilization,S. epidermidis biofilms; dilution 1/2 in peritoneal dialyzate (PD),0.083 min
same,minimal time of exposure to effect sterilization,S. epidermidis biofilms; dilution 1/3 in normal saline (NS),0.5 min
same,minimal time of exposure to effect sterilization,S. epidermidis biofilms; dilution 1/3 in peptone-saline (PS),3 min
same,minimal time of exposure to effect sterilization,S. epidermidis biofilms; dilution 1/3 in peritoneal dialyzate (PD),1 min
same,minimal time of exposure to effect sterilization,S. epidermidis biofilms; dilution 1/5 in normal saline (NS),5 min
same,minimal time of exposure to effect sterilization,S. epidermidis biofilms; dilution 1/5 in peptone-saline (PS),60 min
same,minimal time of exposure to effect sterilization,S. epidermidis biofilms; dilution 1/5 in peritoneal dialyzate (PD),5 min
same,minimal time of exposure to effect sterilization,S. epidermidis biofilms; dilution 1/7 in normal saline (NS),15 min
same,minimal time of exposure to effect sterilization,S. epidermidis biofilms; dilution 1/7 in peptone-saline (PS),240 min
same,minimal time of exposure to effect sterilization,S. epidermidis biofilms; dilution 1/7 in peritoneal dialyzate (PD),7 min
same,minimal time of exposure to effect sterilization,S. epidermidis biofilms; dilution 1/10 in normal saline (NS),60 min
same,minimal time of exposure to effect sterilization,S. epidermidis biofilms; dilution 1/10 in peptone-saline (PS),1440 min
same,minimal time of exposure to effect sterilization,S. epidermidis biofilms; dilution 1/10 in peritoneal dialyzate (PD),10 min
same,effect of diluting with peptone solutions on sterilizing activity,S. epidermidis biofilms; diluted with peptone solutions,inhibitory effect on the sterilizing activity
same,effect of peritoneal dialysis solution on antimicrobial activity,S. epidermidis biofilms; diluted with peritoneal dialysis solution,markedly enhances antimicrobial activity
same,free radical signal,[1],A strong free radical signal is generated
same,kill,Staphylococcus species,6 logs/ml
same,kill,Pseudomonas aeruginosa,6 logs/ml
same,kill,Bacteroides species,6 logs/ml
same,kill,Klebsiella pneumoniae,6 logs/ml
same,kill,Streptococcus species,6 logs/ml
same,kill,[2],6 logs/ml
same,inhibition of free radical formation,[3]; 15 ppm chlorine dioxide,100%
same,inhibition of free radical formation,[3]; about 7.5 ppm chlorine dioxide,74%
same,inhibition of free radical formation,[3]; in words,neutralize the superoxide and related radicals
